From patent US9777020B2, “Furo-3-carboxamide derivatives and methods of use” (AbbVie Inc., priority 2014, dated 2017)

These compounds were tested against TrkA (Homo sapiens (Human), UniProt P04629) (assay: TrkA kinase HTRF enzyme inhibition assay). Conditions: TrkA pre-incubated with 200 μM ATP.
TrkA, sequence (P04629 33-796): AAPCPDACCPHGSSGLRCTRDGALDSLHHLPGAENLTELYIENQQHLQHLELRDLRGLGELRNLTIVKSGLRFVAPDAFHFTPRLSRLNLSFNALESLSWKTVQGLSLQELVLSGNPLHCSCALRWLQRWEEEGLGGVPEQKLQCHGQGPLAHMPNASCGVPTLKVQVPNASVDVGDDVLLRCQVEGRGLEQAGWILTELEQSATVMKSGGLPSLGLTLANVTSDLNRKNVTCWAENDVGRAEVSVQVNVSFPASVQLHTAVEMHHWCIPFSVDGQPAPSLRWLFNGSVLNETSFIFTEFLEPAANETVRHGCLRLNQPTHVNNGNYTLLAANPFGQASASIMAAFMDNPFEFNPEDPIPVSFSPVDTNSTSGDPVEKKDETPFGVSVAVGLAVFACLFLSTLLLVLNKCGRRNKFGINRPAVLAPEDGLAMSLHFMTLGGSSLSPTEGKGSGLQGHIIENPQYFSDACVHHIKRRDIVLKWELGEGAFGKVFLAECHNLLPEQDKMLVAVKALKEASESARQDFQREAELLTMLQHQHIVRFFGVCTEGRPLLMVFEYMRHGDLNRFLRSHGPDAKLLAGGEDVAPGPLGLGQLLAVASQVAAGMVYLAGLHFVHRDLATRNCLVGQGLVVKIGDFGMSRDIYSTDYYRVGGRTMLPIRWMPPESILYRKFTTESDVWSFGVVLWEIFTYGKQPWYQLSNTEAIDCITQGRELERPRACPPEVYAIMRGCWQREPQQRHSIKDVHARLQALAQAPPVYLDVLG
Assay type: biochemical
Procedure: TrkA enzyme was obtained from Invitrogen (as catalog numbers PV3144, PV3616, and PV3617, respectively). Enzyme activity was measured in an HTRF® (homogeneous time resolved fluorescence) assay, which detects enzymatic phosphorylation of a biotinylated synthetic peptide substrate (an LCK peptide analog, biotin-ahx-[…], from Genemed Synthesis). Phosphorylation is assessed by HTRF® in the presence of an anti-phosphotyrosine antibody conjugated to Eu^3+ cryptate (Cisbio) as donor fluorophore, and streptavidin conjugated to allophycocyanin (ProZyme) as acceptor fluorophore. The HTRF® signal was detected at two different wavelengths (620 nm and 665 nm) which were used to calculate the fluorescence ratio.
TrkA enzyme was titrated to a concentration optimized to ensure accurate measurement of the initial reaction rate. To allow the TrkA enzyme to undergo activation and auto-phosphorylation, a 20 minute pre-incubation with ATP was carried out (at twice the final targeted enzyme and ATP concentration) prior to addition of test compound and the peptide substrate.
TrkA in vitro assays were performed by pre-incubating TrkA (2-10 nM) with ATP (200 μM) for 20 minutes at ambient temperature in 50 mM HEPES pH 7.4, 10 mM MgCl2, 2 mM MnCl2, 100 μM Na3VO4, 1 mM dithiothreitol, 0.01% BSA (bovine serum albumin). Then, to the activated Trk enzyme mixture was added the test compound in 2% dimethyl sulfoxide. After 10 minutes, the peptide substrate (125 nM) was added. After 1 hour, enzyme reactions were terminated by addition of equal reaction volumes of detection/stop reagent (containing 0.2 μg/mL anti-phosphotyrosine monoclonal antibody labeled with europium from Cisbio (catalog#PT66-K), and 4 μg/mL PhycoLink® Streptavidin-Allophycocyanin conjugate from ProZyme (catalog#PJ25S) in 60 mM EDTA in 40 mM HEPES pH 7.4, 480 mM KF, 0.01% Tween® 20 and 0.1% BSA bovine serum albumin) Reaction plates were stored at 4° C. overnight before reading the fluorescence ratio signal on a PerkinElmer EnVision™ fluorescence detector. Individual reaction wells were stopped at time points to obtain reaction rates. The test inhibitor compounds were assayed in duplicate, at half-log serial dilutions over a range of concentrations (e.g. starting at 50 μM or 5 μM as the high compound concentration). The percent Trk enzyme inhibition was calculated from the initial rates of the inhibited reactions relative to the uninhibited control. IC50 values were calculated by fitting the inhibition percent to the concentration of inhibitor [I] in the assay in equation 1 below, to solve for the IC50. Inhibition %=100[I]/([I]+[IC50]) equation 1
For N#Cc1ccc(NC(=O)c2coc3c2C(=O)NCC3)cc1 [Example 39, N-(4-cyanophenyl)-4-oxo-4,5,6,7-tetrahydrofuro[3,2-c]pyridine-3-carboxamide], the IC50 was 430 nM.
For O=C(Nc1ccc(F)cn1)c1coc2c1C(=O)NCC2 [Example 40, N-(5-fluoropyridin-2-yl)-4-oxo-4,5,6,7-tetrahydrofuro[3,2-c]pyridine-3-carboxamide], the IC50 was 3240 nM.
COc1ccc(NC(=O)c2coc3c2C(=O)NCC3)cn1 [Example 41, N-(6-methoxypyridin-3-yl)-4-oxo-4,5,6,7-tetrahydrofuro[3,2-c]pyridine-3-carboxamide] showed an IC50 of 1390 nM.
With O=C(Nc1ccc(Cl)cn1)c1coc2c1C(=O)NCC2 [Example 42, N-(5-chloropyridin-2-yl)-4-oxo-4,5,6,7-tetrahydrofuro[3,2-c]pyridine-3-carboxamide] the IC50 was 918 nM.
For N#Cc1cccc(NC(=O)c2coc3c2C(=O)NCC3)c1 [Example 43, N-(3-cyanophenyl)-4-oxo-4,5,6,7-tetrahydrofuro[3,2-c]pyridine-3-carboxamide], the IC50 was 5640 nM.
For CCOc1ccc(NC(=O)c2coc3c2C(=O)NCC3)cn1 [Example 44, N-(6-ethoxypyridin-3-yl)-4-oxo-4,5,6,7-tetrahydrofuro[3,2-c]pyridine-3-carboxamide], the IC50 was 4470 nM.
With Cc1n[nH]c2ccc(NC(=O)c3coc4c3C(=O)NCC4)cc12 [Example 45, N-(3-methyl-1H-indazol-5-yl)-4-oxo-4,5,6,7-tetrahydrofuro[3,2-c]pyridine-3-carboxamide] the IC50 was 3480 nM.
Cc1cc2[nH]ncc2cc1NC(=O)c1coc2c1C(=O)NCC2 [Example 46, N-(6-methyl-1H-indazol-5-yl)-4-oxo-4,5,6,7-tetrahydrofuro[3,2-c]pyridine-3-carboxamide] was tested, and the IC50 was 855 nM.
O=C(Nc1nc2ccccc2s1)c1coc2c1C(=O)NCC2 [Example 47, N-(1,3-benzothiazol-2-yl)-4-oxo-4,5,6,7-tetrahydrofuro[3,2-c]pyridine-3-carboxamide] was tested, and the IC50 was 1220 nM.
In the case of COC(=O)c1n[nH]c2ccc(NC(=O)c3coc4c3C(=O)NCC4)cc12 [Example 48, methyl 5-{[(4-oxo-4,5,6,7-tetrahydrofuro[3,2-c]pyridin-3-yl)carbonyl]amino}-1H-indazole-3-carboxylate], the IC50 is reported as 506 nM.
With CCN(CC)c1ccc(NC(=O)c2coc3c2C(=O)NCC3)cc1 [Example 49, N-[4-(diethylamino)phenyl]-4-oxo-4,5,6,7-tetrahydrofuro[3,2-c]pyridine-3-carboxamide] the IC50 was 631 nM.
CC(O)Cn1ncc2cc(NC(=O)c3coc4c3C(=O)NCC4)ccc21 (stereo not shown) [Example 50, N-[1-(2-hydroxypropyl)-1H-indazol-5-yl]-4-oxo-4,5,6,7-tetrahydrofuro[3,2-c]pyridine-3-carboxamide] showed an IC50 of 90.7 nM.
Compound CS(=O)(=O)NCCn1cc2cc(NC(=O)c3coc4c3C(=O)NCC4)ccc2n1 [Example 51, N-(2-{2-[(methylsulfonyl)amino]ethyl}-2H-indazol-5-yl)-4-oxo-4,5,6,7-tetrahydrofuro[3,2-c]pyridine-3-carboxamide] has an IC50 of 18.9 nM.
Compound CN1CCN(CCn2cc3cc(NC(=O)c4coc5c4C(=O)NCC5)ccc3n2)CC1 [Example 52, N-{2-[2-(4-methylpiperazin-1-yl)ethyl]-2H-indazol-5-yl}-4-oxo-4,5,6,7-tetrahydrofuro[3,2-c]pyridine-3-carboxamide] has an IC50 of 18.4 nM.
Compound O=C(Nc1ccc2c(cnn2CCO)c1)c1coc2c1C(=O)NCC2 [Example 53, N-[1-(2-hydroxyethyl)-1H-indazol-5-yl]-4-oxo-4,5,6,7-tetrahydrofuro[3,2-c]pyridine-3-carboxamide] has an IC50 of 67.5 nM.
O=C(Nc1ccc2c(cnn2CCN2CCCC2)c1)c1coc2c1C(=O)NCC2 [Example 54, 4-oxo-N-{1-[2-(pyrrolidin-1-yl)ethyl]-1H-indazol-5-yl}-4,5,6,7-tetrahydrofuro[3,2-c]pyridine-3-carboxamide] was tested, and the IC50 was 108 nM.
CC(O)Cn1cc2cc(NC(=O)c3coc4c3C(=O)NCC4)ccc2n1 (stereo not shown) [Example 55, N-[2-(2-hydroxypropyl)-2H-indazol-5-yl]-4-oxo-4,5,6,7-tetrahydrofuro[3,2-c]pyridine-3-carboxamide] gave an IC50 of 20.8 nM.
For O=C(Nc1ccc2c(cnn2CCN2CCOCC2)c1)c1coc2c1C(=O)NCC2 [Example 56, N-{1-[2-(morpholin-4-yl)ethyl]-1H-indazol-5-yl}-4-oxo-4,5,6,7-tetrahydrofuro[3,2-c]pyridine-3-carboxamide], the IC50 was 48.5 nM.
CN1CCN(CCn2ncc3cc(NC(=O)c4coc5c4C(=O)NCC5)ccc32)CC1 [Example 57, N-{1-[2-(4-methylpiperazin-1-yl)ethyl]-1H-indazol-5-yl}-4-oxo-4,5,6,7-tetrahydrofuro[3,2-c]pyridine-3-carboxamide] was tested, and the IC50 was 34.6 nM.
With CS(=O)(=O)NCCn1ncc2cc(NC(=O)c3coc4c3C(=O)NCC4)ccc21 [Example 58, N-(1-{2-[(methylsulfonyl)amino]ethyl}-1H-indazol-5-yl)-4-oxo-4,5,6,7-tetrahydrofuro[3,2-c]pyridine-3-carboxamide] the IC50 was 105 nM.
Compound CN1CCc2occ(C(=O)Nc3ccc(O)cc3)c2C1=O [Example 59, N-(4-hydroxyphenyl)-5-methyl-4-oxo-4,5,6,7-tetrahydrofuro[3,2-c]pyridine-3-carboxamide] has an IC50 of 984 nM.
CC(=O)Nc1ccc(NC(=O)c2coc3c2C(=O)N(C)CC3)cc1 [Example 60, N-(4-acetamidophenyl)-5-methyl-4-oxo-4,5,6,7-tetrahydrofuro[3,2-c]pyridine-3-carboxamide] was tested, and the IC50 was 2110 nM.
For CN1CCc2occ(C(=O)Nc3ccc(N4CCCCC4)cc3)c2C1=O [Example 61, 5-methyl-4-oxo-N-[4-(piperidin-1-yl)phenyl]-4,5,6,7-tetrahydrofuro[3,2-c]pyridine-3-carboxamide], the IC50 was 195 nM.
CN1CCc2occ(C(=O)Nc3cnc4ccccc4c3)c2C1=O [Example 62, 5-methyl-4-oxo-N-(quinolin-3-yl)-4,5,6,7-tetrahydrofuro[3,2-c]pyridine-3-carboxamide] showed an IC50 of 827 nM.
CN1CCc2occ(C(=O)Nc3ccc4ncccc4c3)c2C1=O [Example 63, 5-methyl-4-oxo-N-(quinolin-6-yl)-4,5,6,7-tetrahydrofuro[3,2-c]pyridine-3-carboxamide] showed an IC50 of 319 nM.
CN1CCc2occ(C(=O)Nc3ccc4cn[nH]c4c3)c2C1=O [Example 64, N-(1H-indazol-6-yl)-5-methyl-4-oxo-4,5,6,7-tetrahydrofuro[3,2-c]pyridine-3-carboxamide] showed an IC50 of 134 nM.
COc1ccc(NC(=O)c2coc3c2C(=O)N(C)CC3)c(OC)n1 [Example 65, N-(2,6-dimethoxypyridin-3-yl)-5-methyl-4-oxo-4,5,6,7-tetrahydrofuro[3,2-c]pyridine-3-carboxamide] was tested, and the IC50 was 146 nM.
Cc1cc(NC(=O)c2coc3c2C(=O)N(C)CC3)no1 [Example 66, 5-methyl-N-(5-methyl-1,2-oxazol-3-yl)-4-oxo-4,5,6,7-tetrahydrofuro[3,2-c]pyridine-3-carboxamide] gave an IC50 of 5080 nM.
Work on CN1CCc2occ(C(=O)Nc3ccc(C#N)cc3)c2C1=O [Example 67, N-(4-cyanophenyl)-5-methyl-4-oxo-4,5,6,7-tetrahydrofuro[3,2-c]pyridine-3-carboxamide] yielded an IC50 of 1080 nM.
Work on CN1CCc2occ(C(=O)Nc3ccc(F)cn3)c2C1=O [Example 68, N-(5-fluoropyridin-2-yl)-5-methyl-4-oxo-4,5,6,7-tetrahydrofuro[3,2-c]pyridine-3-carboxamide] yielded an IC50 of 5820 nM.
COc1ccc(NC(=O)c2coc3c2C(=O)N(C)CC3)cn1 [Example 69, N-(6-methoxypyridin-3-yl)-5-methyl-4-oxo-4,5,6,7-tetrahydrofuro[3,2-c]pyridine-3-carboxamide] was tested, and the IC50 was 4340 nM.
In the case of CN1CCc2occ(C(=O)Nc3ccc(Cl)cn3)c2C1=O [Example 70, N-(5-chloropyridin-2-yl)-5-methyl-4-oxo-4,5,6,7-tetrahydrofuro[3,2-c]pyridine-3-carboxamide], the IC50 is reported as 2490 nM.
CN1CCc2occ(C(=O)Nc3cccc(C#N)c3)c2C1=O [Example 71, N-(3-cyanophenyl)-5-methyl-4-oxo-4,5,6,7-tetrahydrofuro[3,2-c]pyridine-3-carboxamide] showed an IC50 of 3670 nM.
CCOc1ccc(NC(=O)c2coc3c2C(=O)N(C)CC3)cn1 [Example 72, N-(6-ethoxypyridin-3-yl)-5-methyl-4-oxo-4,5,6,7-tetrahydrofuro[3,2-c]pyridine-3-carboxamide] was tested, and the IC50 was 2480 nM.
